The conditions of series [1]: ref website drug bank, cited from earlier work.
Series [2] can be described thus: PKPlus two-compartmental PK model fitted to reference product plasma data. Also on record: species or system human.
The mark [3] stands for this setting: fasting, two-compartmental model, from reference product 2.0 mg data of ref 13.

Where two headings read alike, the source gives them in different places.

The term Log P denotes a log measure of how a compound divides between an organic and an aqueous phase. One may read the pKa as the pH at which an ionisable group is half protonated. Usually Solubility stands for the concentration that dissolves in the medium under given conditions. `O=C(O)C[C@H](O)C[C@H](O)/C=C/c1c(C2CC2)nc2ccccc2c1-c1ccc(F)cc1` [pitavastatin calcium]: in series [1] (model input), the log partition coefficient (Log P) was 3.75 and the pKa is 4.86. The Solubility in series [1] (pH 4.68) was 65.2 µg/mL. Moreover, the Solubility in series [1] (water) was 3.94 µg/mL. Further, in series [2] (setting [3]), the “distribution coefficient from the peripheral to central compartment (k21)” value turned out to be 0.086 h⁻¹ and the “distribution constant from the central to the peripheral compartment (k12)” value stood at 0.252 h⁻¹. In series [2] (human, plasma, oral, 2 mg), this compound gave a Vd of 43.2 L and a clearance of 343 mL/min.
